“And” between values parts separate entries of the source, which are not always exact repeats. Identical values can stand only once.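 Cells were grown in 96-well plates and exposed to each compound for 48 hours at five concentrations; endpoints were interpolated linearly between bracketing concentrations, or set to the highest concentration if not reached. Here, GI50 denotes the concentration required for 50% inhibition of growth. TGI marks complete inhibition of growth.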

What all share (assay): inhibition of tumour cell growth, NCI panel, 48 h
The test system of assay [1] is RXF 393 renal.
Assay [2] deals with LOX IMVI melanoma.
Assay [3] concerns SK-MEL-28 melanoma.
Assay [4] concerns CCRF-CEM leukemia.
Assay [5] concerns ACHN renal.
The test system of assay [6] is T-47D breast.
Assay [7] concerns SF-539 CNS.
Assay [8] deals with M14 melanoma.
The test system of assay [9] is RPMI-8226 leukemia.
The test system of assay [10] is SK-OV-3 ovarian.

As for `C=C(C)C1CCC2=CC(CC3(C)OC3C3=CC(C(=O)OC)=C(C1)O3)OC2=O` (stereo not given), the TGI in assay [1], in [2], in assay [3], in assay [4], in [5] and in assay [6] was greater than 100 µM each time. The TGI in [7] and in assay [8] was greater than 100 µM each time.

Take `CN(C)CC1C(=O)O[C@H]2[C@H]1CC/C(COC(=O)NCc1ccc(Cn3c(=O)sn(CCCI)c3=O)cc1)=C\CC[C@@]1(C)O[C@@H]21` (stereo not given in full): the GI50 was 0.889 µM in [1]; 0.913 µM in [2]; 0.92 µM in [3]; 1.75 µM in [9]; 1.46 µM in assay [4]; 0.861 µM in [5]. Moreover, the GI50 in [10] was 7.96 µM; in assay [7], 2.57 µM; in [8], 0.893 µM. The TGI in assay [1] turned out to be 1.71 µM; in [2], 1.69 µM; in assay [3], 1.82 µM; in assay [9], 6.88 µM; in assay [4], 7.88 µM; in [5], 1.58 µM. For the same compound, the results for the TGI in [10], in assay [7] and in assay [8] were 14.8 µM, 8.75 µM and 1.92 µM, respectively.

For `CC(C)N1C(C)[C@@H](c2ccccc2)O[P@@]1(=O)CC1=CCCCC1` (stereo not given in full), the TGI in assay [1], in assay [2], in [3], in assay [9], in [4] and in [5] was greater than 100 µM in each case. Also, the TGI in [10], in [7] and in [8] was greater than 100 µM in each case.

As for `O=[N+]([O-])c1cccc(S(=O)(=O)N/N=C/c2cc(I)cc([N+](=O)[O-])c2O)c1`, the TGI in [1] was 56.3 µM; in assay [2], 62.3 µM; in [3], 87.9 µM; in assay [9] it was 86.2 µM; in assay [4], 47.9 µM; in [5] it was 95.8 µM. Also, the figures for the TGI in assay [10], in assay [7] and in assay [8] were 73.2 µM, 48.5 µM and 77 µM, respectively.

For `COc1cc(C2c3cc4c(cc3[C@@H](Nc3ccc([N+](=O)[O-])cc3)C3COC(=O)[C@H]23)OCO4)cc(OC)c1O` (stereo not given in full), the TGI in assay [1] is 6.93 µM; in [2] it was 6.67 µM; in [3], 34.8 µM; in assay [9], 7.22 µM; in assay [4], 0.967 µM and 8.1 µM; in [5], 2.82 µM. Further, the TGI in assay [10] came out at 10.1 µM; in assay [7], 3.79 µM; in [8], 12.7 µM. The GI50 is 0.367 µM in assay [2]; 0.256 µM in [9]; 0.226 µM in assay [4]; 0.798 µM in assay [10]; 0.734 µM in assay [7]; 0.543 µM in assay [8].

As for `COC(=O)c1ccc(NC(=O)c2ccc(NC3=C(Cl)C(=O)N(Cc4ccccc4)C3=O)cc2)cc1`, the GI50 is 22.9 µM in assay [1]; 13.3 µM in assay [2]; 23.6 µM in assay [3]; 3.74 µM in assay [9]; 17.2 µM in assay [5]; 20.7 µM in assay [10]. Also, the GI50 was 74.1 µM in [6], 20.7 µM in assay [7] and 17.1 µM in assay [8]. Moreover, the TGI in assay [1] was determined as 48.3 µM; in assay [2], 26 µM; in assay [3] it was 47.3 µM; in assay [9] it was 16.3 µM; in assay [5], 31 µM; in [10], 38.3 µM. In addition, the figures for the TGI in [6], in assay [7] and in assay [8] were greater than 100 µM, 39.4 µM and 30.8 µM, respectively.

For `COc1ccc2c(CCCc3ccc(Cl)cc3Cl)c3[n+](cc2c1OC)CCc1cc2c(cc1-3)OCO2`, the GI50 was 0.37 µM in [2]; 0.492 µM in assay [3]; 1.44 µM in assay [5]; 0.873 µM in assay [10]; 0.325 µM in [6]; 0.485 µM in [8]. In addition, the TGI in [2] came out at 1.44 µM; in assay [3], 1.83 µM; in assay [5] it was 3.15 µM; in assay [10] it was 2.2 µM; in [6] it was 1.84 µM; in [8], 1.88 µM.

Take `N#CC(C(=N/O)/C(=N\O)C(C#N)c1ccccc1)c1ccccc1` (stereo not given): the TGI in assay [1], in assay [2], in assay [3], in assay [9], in assay [4] and in assay [5] was greater than 100 µM throughout. For the same compound, the TGI in assay [10], in [7] and in assay [8] was greater than 100 µM each time.

Turning to `Cn1c2c(c3ccccc3c1=O)C(=O)c1ccccc1-2`, the TGI in assay [2], in assay [3], in assay [9], in assay [4], in assay [10] and in assay [6] was greater than 100 µM each time. The TGI in assay [7] is 59.1 µM; in [8], greater than 100 µM.

Consider `CC(=O)[CH-]C(=O)c1ccccc1.CC(=O)[CH-]C(=O)c1ccccc1.CC[C@H](/C=C/C(C)[C@H]1CCC2[C@@H]3CC=C4C[C@@H]([O-])CC[C@]4(C)C3CC[C@@]21C)C(C)C.CC[C@H](/C=C/C(C)[C@H]1CCC2[C@@H]3CC=C4C[C@@H]([O-])CC[C@]4(C)C3CC[C@@]21C)C(C)C.Cl.[Ti+4]` (stereo not given in full), for which the GI50 was greater than 25 µM in [1]; greater than 25 µM in assay [2]; 6.08 µM in assay [3]; greater than 25 µM in assay [9]; greater than 25 µM in assay [4]; greater than 25 µM in assay [5]. Besides, the GI50 in [10], in [7] and in assay [8] was greater than 25 µM each time. In addition, the TGI in assay [1], in [2], in assay [3], in assay [9], in [4] and in assay [5] was greater than 25 µM in each case. In addition, the TGI in assay [10], in assay [7] and in assay [8] was greater than 25 µM in each case.

Turning to `CCOC(=O)C1=C(O)C(=O)c2ccoc2C1=O`, the TGI in [1], in assay [2], in assay [3], in assay [9], in assay [4] and in assay [5] was greater than 100 µM in each case. Besides, the TGI in [10], in [7] and in assay [8] was greater than 100 µM in each case.

In the case of `CCn1cc(C(=O)N/N=C/c2cccs2)c(=O)c2cc(F)c(N3CCNC(C)C3)c(F)c21` (stereo not given), the GI50 was 1.47 µM in assay [1]; 1.67 µM in assay [5]; 1.79 µM in assay [10]; 1.68 µM in assay [6]; 1.62 µM in [7]. The TGI came to 3 µM in assay [1]; 3.04 µM in assay [5]; 3.38 µM in assay [10]; 3.45 µM in [6]; 3.07 µM in [7].

Turning to `CCOC(=O)/C(C#N)=C\Sc1ccccc1`, the TGI is 35.1 µM in assay [1]; 21.4 µM in assay [2]; 42.8 µM in assay [3]; greater than 100 µM in [9]; greater than 100 µM in assay [4]; 47.1 µM in assay [5]. Further, the TGI in [10] turned out to be 74.7 µM; in assay [7], 30.1 µM; in assay [8], 35.6 µM.

Take `NCCCC(N=Cc1nc(-c2ccccc2)oc1O)C(=O)O` (stereo not given): the TGI in [1], in assay [2], in assay [3], in assay [9], in assay [4] and in assay [5] was greater than 100 µM throughout. For the same compound, the TGI in [10], in assay [7] and in assay [8] was greater than 100 µM in each case.

Turning to `CN(C)CCNC(=O)c1cccc2c1Oc1cccc([N+](=O)[O-])c1O2`, the TGI in assay [3] is 38.9 µM; in assay [4] it was 89.8 µM; in [5] it was 37.5 µM; in assay [10], 37.4 µM; in assay [6], 27.9 µM; in assay [7], 40.1 µM. Moreover, the TGI in assay [8] is 30 µM.

As to `O=C1C(Cl)=C(Cl)C(=O)N1c1cccc(C(F)(F)F)c1`, the TGI in assay [1] is 70 µM; in [2], greater than 100 µM; in [3], greater than 100 µM; in assay [9] it was greater than 100 µM; in assay [4], greater than 85.3 µM; in assay [5], greater than 100 µM. For the same compound, the TGI in [10], in [7] and in assay [8] was greater than 100 µM in each case.

Take `C(=C\c1ccncc1)/c1ccncc1`: the GI50 in [1], in [2], in [3], in assay [4], in [5] and in assay [10] was greater than 100 µM throughout. Further, the GI50 in assay [6], in [7] and in assay [8] was greater than 100 µM in each case. Further, the TGI in [1], in assay [2], in [3], in assay [4], in [5] and in [10] was greater than 100 µM throughout. Further, the TGI in assay [6], in assay [7] and in assay [8] was greater than 100 µM each time.

The values are drawn from PubChem BioAssay (NCI).
